From ChEMBL document CHEMBL1201862, “PubChem BioAssay data set” (2004)
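Assay format: 96-well plates, 48-hour exposure. GI50 = concentration required for 50% inhibition of growth.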 Activity calls are given as the source filed them. Rule as the data show it: active = GI50 up to about 1.1 µM and inactive = higher.

Legend:
Experiment in all cases: NCI tumour cell line growth inhibition, 48 h
MDA-MB-435 = system: MDA-MB-435
SF-295 = system: SF-295
U-251 = system: U-251
HOP-92 = system: HOP-92
Hs-578T = system: Hs-578T
NCI/ADR-RES = system: NCI/ADR-RES
SW-620 = system: SW-620
SK-MEL-2 = system: SK-MEL-2
HT-29 = system: HT-29
UACC-62 = system: UACC-62
HCT-116 = system: HCT-116
SR = system: SR
SK-MEL-5 = system: SK-MEL-5
LOX IMVI = system: LOX IMVI
UO-31 = system: UO-31
COLO 205 = system: COLO 205
A549 = system: A549
OVCAR-3 = system: OVCAR-3
NCI-H23 = system: NCI-H23
SN12C = system: SN12C

Measured: GI50

O=C1c2ccccc2CCC1C(O)(C(F)(F)F)C(F)(F)F (configuration not stated)
inactive: MDA-MB-435 > 100 µM | SF-295 > 100 µM | U-251 > 100 µM | HOP-92 > 100 µM | Hs-578T > 100 µM | NCI/ADR-RES > 100 µM | SW-620 > 100 µM | SK-MEL-2 27.5 µM | HT-29 > 100 µM | UACC-62 > 100 µM | HCT-116 > 100 µM | SR > 100 µM | SK-MEL-5 49.2 µM | LOX IMVI > 100 µM | UO-31 > 100 µM | COLO 205 > 100 µM | A549 > 100 µM | OVCAR-3 > 100 µM | NCI-H23 > 100 µM

C#CCNC(Cc1c[nH]cn1)C(=O)O (configuration not stated)
inactive: MDA-MB-435 > 100 µM | SF-295 > 100 µM | U-251 > 100 µM | HOP-92 > 100 µM | Hs-578T > 100 µM | NCI/ADR-RES > 100 µM | SN12C > 100 µM | SW-620 > 100 µM | SK-MEL-2 > 100 µM | HT-29 > 100 µM | UACC-62 > 100 µM | HCT-116 > 100 µM | SR > 100 µM | SK-MEL-5 > 100 µM | LOX IMVI > 100 µM | UO-31 > 100 µM | COLO 205 > 100 µM | A549 > 100 µM | OVCAR-3 > 100 µM

OC1NC2Nc3ccccc3NC2NC1O (configuration not stated)
inactive: MDA-MB-435 > 100 µM | SF-295 > 100 µM | U-251 > 100 µM | HOP-92 30.8 µM | Hs-578T > 100 µM | NCI/ADR-RES > 100 µM | SN12C > 100 µM | SW-620 > 100 µM | SK-MEL-2 > 100 µM | HT-29 > 100 µM | UACC-62 > 100 µM | HCT-116 > 100 µM | SR > 100 µM | SK-MEL-5 > 100 µM | LOX IMVI > 100 µM | COLO 205 > 100 µM | A549 > 100 µM | OVCAR-3 > 100 µM | NCI-H23 > 100 µM

N#CCCN(CCC#N)CCN(CCN(CCC#N)CCC#N)CCN(CCC#N)CCC#N
inactive: MDA-MB-435 > 100 µM | SF-295 > 100 µM | U-251 > 100 µM | HOP-92 > 100 µM | Hs-578T > 100 µM | NCI/ADR-RES > 100 µM | SN12C > 100 µM | SW-620 > 100 µM | SK-MEL-2 > 100 µM | HT-29 > 100 µM | HCT-116 > 100 µM | SR > 100 µM | SK-MEL-5 > 100 µM | LOX IMVI > 100 µM | UO-31 > 100 µM | COLO 205 > 100 µM | A549 > 100 µM | OVCAR-3 > 100 µM | NCI-H23 > 100 µM

C[C@]12C[C@H](O)[C@H]3[C@@H](CCC4=CC(=O)CC[C@@]43C)[C@@H]1CC[C@@H]2c1csc(-c2ccccc2)n1
inactive: MDA-MB-435 > 46.3 µM | SF-295 > 100 µM | U-251 24.9 µM | HOP-92 27.8 µM | Hs-578T 30.1 µM | NCI/ADR-RES 46.6 µM | SN12C 59.7 µM | SW-620 39.5 µM | SK-MEL-2 > 34 µM | HT-29 > 30.3 µM | UACC-62 29.4 µM | HCT-116 > 100 µM | SR 3.21 µM | LOX IMVI > 58.3 µM | COLO 205 > 28 µM | A549 11.2 µM | OVCAR-3 > 22.4 µM | NCI-H23 4.57 µM

CN(C)c1ccc(C2ON=C(c3ccccc3)N2C23CC4CC(CC(C4)C2)C3)cc1 (configuration not stated)
inactive: MDA-MB-435 > 10 µM | SF-295 > 10 µM | U-251 > 10 µM | HOP-92 > 10 µM | Hs-578T > 10 µM | NCI/ADR-RES > 10 µM | SN12C > 10 µM | SW-620 > 10 µM | SK-MEL-2 > 10 µM | HT-29 > 10 µM | UACC-62 > 10 µM | HCT-116 > 10 µM | SR 8.02 µM | SK-MEL-5 > 10 µM | LOX IMVI > 10 µM | COLO 205 > 10 µM | A549 > 10 µM | OVCAR-3 > 10 µM | NCI-H23 > 10 µM

O=C1C/C(=C\c2ccccc2)C(=O)c2ccccc2N1
inactive: MDA-MB-435 23.3 µM | SF-295 17.4 µM | HOP-92 29.9 µM | Hs-578T 60.1 µM | NCI/ADR-RES 23.6 µM | SN12C 18.5 µM | SW-620 19.5 µM | SK-MEL-2 28.5 µM | HT-29 18.4 µM | UACC-62 19.2 µM | HCT-116 14.7 µM | SR 42.8 µM | SK-MEL-5 20.3 µM | LOX IMVI 20.6 µM | COLO 205 20 µM | A549 25.5 µM | OVCAR-3 25 µM | NCI-H23 24.7 µM

C=C(C(=O)O)[C@@H]1C[C@@H](OC(C)=O)[C@]2(C)CC/C=C(\C)CCC[C@H](C)[C@H](O)[C@@H]1O2
inactive: MDA-MB-435 24.2 µM | SF-295 24.7 µM | U-251 > 100 µM | HOP-92 46 µM | Hs-578T 49.9 µM | NCI/ADR-RES 33.3 µM | SN12C 60.4 µM | SW-620 40.1 µM | SK-MEL-2 71.8 µM | HT-29 47.3 µM | UACC-62 47.8 µM | HCT-116 52.8 µM | SR 24.3 µM | SK-MEL-5 30.2 µM | LOX IMVI 30.3 µM | COLO 205 33.1 µM | A549 43 µM | OVCAR-3 37.4 µM

Cc1cc2nc(N3C(=O)/C(=C/Cc4ccco4)N=C3c3ccccc3)sc2cc1C
inactive: MDA-MB-435 7.53 µM | SF-295 43.8 µM | U-251 29 µM | HOP-92 10.2 µM | Hs-578T 39.3 µM | NCI/ADR-RES 27.6 µM | SN12C 25.6 µM | SW-620 31.3 µM | SK-MEL-2 26.8 µM | HT-29 23.7 µM | UACC-62 23.3 µM | HCT-116 17 µM | SR 38.4 µM | SK-MEL-5 22.3 µM | LOX IMVI 25.9 µM | UO-31 26.6 µM | COLO 205 28 µM | A549 36.9 µM | OVCAR-3 22.3 µM

Cc1ccc([S+]([O-])C[C@](NC(=O)OCc2ccccc2)(Sc2ccccc2)C(F)F)cc1 (some centres not stated)
inactive: MDA-MB-435 29.7 µM | SF-295 16.8 µM | U-251 17 µM | HOP-92 17.8 µM | Hs-578T 23.9 µM | NCI/ADR-RES 17 µM | SW-620 19.6 µM | SK-MEL-2 27.6 µM | HT-29 16.6 µM | UACC-62 14.8 µM | HCT-116 16.3 µM | SR 10.8 µM | SK-MEL-5 13.3 µM | LOX IMVI 4.16 µM | UO-31 6.56 µM | COLO 205 19.4 µM | A549 28.6 µM | OVCAR-3 24.3 µM | NCI-H23 17.7 µM
